Assay results taken from ChEMBL document CHEMBL5727648, “5-aromatic alkynyl substituted benzamide compound and preparation method, pharmaceutical composition, and use thereof” (2020).

Biological target: Metabotropic glutamate receptor 5 (Homo sapiens, UniProt P41594)
Assay: The Fluo 8-AM fluorescent dye is an […] derivative of Fluo 8 which can easily penetrate the cell membrane into the cell by culture. The fluorescent dye into the cell will be hydrolyzed by intracellular esterase, the resulting Fluo 8 cannot easily pass through the lipid bimolecular membrane as a polar molecule, and will retain in the cell, and combine with calcium (Ca2+) to produce fluoresces.Cells expressing GPCR receptor protein (mGluR5) were first calibrated with a calcium ion sensitive fluorescent probe and then stimulated with the compound. After stimulation, the activation of the receptor lead to the calcium ion mobilization, and the fluorescent probe captures the calcium ion to induce the fluorescence signal. The signal can be read by a fluorescent plate reader. The fluorescent plate reader contains a sampling head for compound addition, thus enabling the change of the fluorescence value of the compound be read in real time.
Format: cell-based

Sequence of Metabotropic glutamate receptor 5 (P41594 whole entry): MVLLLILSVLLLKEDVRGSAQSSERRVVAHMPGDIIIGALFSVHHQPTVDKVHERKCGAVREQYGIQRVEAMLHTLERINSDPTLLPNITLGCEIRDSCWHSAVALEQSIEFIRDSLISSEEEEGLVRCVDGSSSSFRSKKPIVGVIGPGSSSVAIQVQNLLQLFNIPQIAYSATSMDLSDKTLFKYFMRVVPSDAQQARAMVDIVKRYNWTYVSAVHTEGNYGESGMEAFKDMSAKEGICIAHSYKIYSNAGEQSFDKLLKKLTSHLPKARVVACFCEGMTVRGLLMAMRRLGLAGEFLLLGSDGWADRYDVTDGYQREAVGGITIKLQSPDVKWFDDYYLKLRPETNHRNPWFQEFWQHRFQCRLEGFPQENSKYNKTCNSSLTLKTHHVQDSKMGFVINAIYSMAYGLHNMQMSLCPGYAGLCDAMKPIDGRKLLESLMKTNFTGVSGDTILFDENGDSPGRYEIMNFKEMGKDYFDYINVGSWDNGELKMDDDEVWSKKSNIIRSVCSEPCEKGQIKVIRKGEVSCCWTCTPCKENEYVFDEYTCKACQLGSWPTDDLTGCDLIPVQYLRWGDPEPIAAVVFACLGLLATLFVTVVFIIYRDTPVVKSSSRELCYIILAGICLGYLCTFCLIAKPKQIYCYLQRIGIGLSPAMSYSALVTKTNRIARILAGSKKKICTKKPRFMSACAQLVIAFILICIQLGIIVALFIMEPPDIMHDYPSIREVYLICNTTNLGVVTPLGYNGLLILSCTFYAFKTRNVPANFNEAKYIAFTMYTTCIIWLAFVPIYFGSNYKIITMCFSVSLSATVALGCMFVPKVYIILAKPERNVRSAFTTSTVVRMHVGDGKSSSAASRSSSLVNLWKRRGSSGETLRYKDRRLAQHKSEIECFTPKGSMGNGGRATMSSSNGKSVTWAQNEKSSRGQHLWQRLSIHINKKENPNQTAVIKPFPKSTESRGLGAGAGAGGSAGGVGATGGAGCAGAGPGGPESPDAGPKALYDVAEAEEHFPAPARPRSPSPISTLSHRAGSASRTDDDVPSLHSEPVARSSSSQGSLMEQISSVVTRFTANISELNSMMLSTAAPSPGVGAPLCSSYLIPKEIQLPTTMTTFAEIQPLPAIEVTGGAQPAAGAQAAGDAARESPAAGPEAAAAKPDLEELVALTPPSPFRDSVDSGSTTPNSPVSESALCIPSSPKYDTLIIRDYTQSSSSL

| IC50 [nM] | Compound |
| --- | --- |
| 14.4 | Cc1nc(C#Cc2cccc(C(=O)N3CCc4ccccc4C3)c2)cs1 |
| 14.2 | Cc1nc(C#Cc2cccc(C(=O)Nc3cccnc3)c2)cs1 |
